The subject of this assay is B16 melanoma cells. Description: B16 melanoma test (test 1). The conditions noted are these: Mus musculus, 50 /ug/ml, aqueous suspension, incubation 20 hours, cells counted 48 hours after start. Format: cell-based. As for the experimental part: B16 melanoma cells grow as a "mono]ayer". The doubling time of these cells in a cell culture is 12-16 hours.
On day 0, a quantity of […] B16 melanoma cells is introduced in each cell culture dish.
On day 1 the compounds to be examined are vortexed in the presence of glass beads. The compound to be tested is then added to the dishes with melanoma celles in the desired quantity. The incubation takes place at 37°C for 20 hours in a C02 incubator. The incubation is terminated by removing the culture medium with therein the compound to be tested, after which the cells are wahsed once and fresh medium is added.
Forty-eight hours after the beginning of the incubation the quantity of cells in each dish is measured by means of a microcell Coulter Counter. The results thus obtained are expressed by indicating the activity of the compounds by 1+, 2+, 3+, 4+ or 5+ having the following meanings: • 1+: cell growth is inhibited by 1-20% with respect to the control test • 2+: cell growth is inhibited by 21-40% with respect to the control test • 3+: cell growth is inhibited by 41-60% with respect to the control test • 4+: cell growth is inhibited by 61-80% with respect to the control test • 5+: cell growth is inhibited by 81-100% with respect to the control test.
Sensitivity of B16 melanoma cells.
In the above-described manner, various compounds according to the invention were tested in dosages of 50 /ug/ml in the form of an aqueous suspension.

Results on 17 compounds are retold here after patent publication EP0193249A2, “Benzoyl urea derivatives having ati-tumor activity” (DUPHAR INTERNATIONAL RESEARCH B.V, priority 1985, dated 1986).

Broadly, the inhibition is the percentage by which the read-out fell short of the control. Low values mean a weak effect, high ones a strong effect.

The compound `O=C(NC(=O)c1c(O)cccc1Cl)Nc1c(F)c(F)c(F)c(F)c1F` [compound 1] registered an inhibition at 50 µg/mL of 61 to 80%.

`O=C(NC(=O)c1c(F)c(F)c(F)c(F)c1F)Nc1ccc(O)c(C(F)(F)F)c1` [compound 2] had an inhibition at 50 µg/mL of 81 to 100%.

In turn, `CN(C)c1cccc(F)c1C(=O)NC(=O)Nc1ccc(Cl)cc1` [compound 3] registered an inhibition at 50 µg/mL of 81 to 100%.

`O=C(NC(=O)c1c(F)cccc1F)Nc1ccc(C(O)(C(F)(F)F)C(F)(F)F)cc1` [compound 4] came in with an inhibition at 50 µg/mL of 81 to 100%.

In turn, `CCOC(=O)c1ccc(NC(=O)NC(=O)c2c(F)cccc2F)cc1` [compound 5] gave an inhibition at 50 µg/mL of 41 to 60%.

With `O=C(NC(=O)c1c(F)c(F)c(F)c(F)c1F)Nc1c(F)c(F)c(F)c(F)c1F` [compound 6], the inhibition at 50 µg/mL was 81 to 100%.

`O=C(NC(=O)c1c(F)c(F)c(F)c(F)c1F)Nc1ccc(Cl)cc1` [compound 7] showed an inhibition at 50 µg/mL of 61 to 80%.

As to `Nc1ccc(C(=O)NC(=O)Nc2ccccc2N)cc1` [compound 8], the inhibition at 50 µg/mL lay in the range of 1 to 20%.

In turn, `Nc1cc(N)c(Cl)c(C(=O)NC(=O)Nc2ccc(Cl)cc2)c1Cl` [compound 9] gave an inhibition at 50 µg/mL of 21 to 40%.

In turn, `O=C(NC(=O)c1ccccc1N1CCCCC1)Nc1ccc(C(F)(F)F)cc1` [compound 10] displayed an inhibition at 50 µg/mL of 1 to 20%.

For `COc1ccc(NC(=O)NC(=O)c2c(F)cccc2N(C)C)cc1` [compound 11], the inhibition at 50 µg/mL is 81 to 100%.

With `CN(C)c1cccc(F)c1C(=O)NC(=O)Nc1c(F)c(F)c(F)c(F)c1F` [compound 12], the inhibition at 50 µg/mL lay within 61 to 80%.

On to `Nc1ccccc1C(=O)NC(=O)Nc1ccc(Cl)cc1` [compound 13], for which the inhibition at 50 µg/mL is 1 to 20%.

In the case of `CC(Oc1ccc(NC(=O)NC(=O)c2c(F)cccc2F)cc1)c1ccncc1` (centres unmarked) [compound 14], the inhibition at 50 µg/mL was 61 to 80%.

`CN(C)c1ccccc1C(=O)NC(=O)Nc1ccc(Cl)cc1` [compound 15]: the inhibition at 50 µg/mL was 81 to 100%.

For the compound `O=C(NC(=O)Nc1ccc(Cl)cc1)NC(=O)c1c(O)cccc1Cl` [compound 16], the inhibition at 50 µg/mL lay in the range of 61 to 80%.

On to `CCN(CC)c1cccc(F)c1C(=O)NC(=O)Nc1ccc(Cl)cc1` [compound 17], for which the inhibition at 50 µg/mL was in the range of 21 to 40%.
